{"source": "patent US12064509B2", "about": "“Enema for rectal application” (Dr. Falk Pharma GmbH, priority 2015, dated 2024)", "key": {"[1]": {"tested_on": "patients with active ulcerative colitis", "assay": "Placebo-controlled randomized double-blind multicenter parallel group comparative study (Japic CTI-132294), rectal budesonide foam", "format": "in vivo, human", "procedure": "Dose responsiveness, efficacy and safety are investigated for patients with active ulcerative colitis when budesonide 2 mg is rectally administered once a day or twice a day for 6 weeks by a double-blind comparative study with placebo as a control (clinical trial number: Japic CTI-132294). For the trial, an aerosol with fixed dose injection type for rectal injection (rectal foaming agent) is used as a test drug, in which 25 mL (1.35 g) of white creamy foam containing 2 mg of budesonide is released by one injection. As a remission induction therapeutic agent of ulcerative colitis in active phase where the lesion is confined to the rectum and sigmoid colon, the aerosol for rectal injection is approved in Europe at a dosage and dose of budesonide 2 mg once a day (trade name: Budenofalk 2 mg/dose rectal foam, manufactured by Dr. Falk Pharma GmbH). […] The subjects are ulcerative colitis patients in active phase, and are divided into a group administered the test drug once a day (hereinafter, once a day group, 54 cases), a group administered the test drug twice a day (hereafter, twice a day group, 55 cases), and a group administered the control drug (hereinafter, placebo group, 56 cases). The test drug or control drug is rectally administered twice a day (once in the morning and once in the evening), after defecation, if possible. However, for the once a day group of test drug, a control drug is administered in the morning and a test drug is administered in the evening. The number of injections per dose is one, the administration period is 6 weeks, and the drug is administered until the evening before the evaluation. The dose of budesonide in each group is 2 mg/day for the once a day group, 4 mg/day for the twice a day group, and 0 mg/day for the placebo group. Furthermore, in order to exclude patients whose symptoms improve due to the action of rectal administration (improvement example due to placebo effect) or patients who develop complaints resulting from rectal administration, a pre-observation period in which the control drug is administered twice a day (once in the morning and once in the evening) for one week under a single-blind test is set prior to this administration. […] The point estimate of the odds ratio for the placebo group (95% confidence interval on both sides) in the logistic regression model with model as main effect model, remission rate as objective variable, and administration group and assignment factor as explanatory variables is 3.994 (1.734 to 9.711) in the once a day group, and 3.674 (1.594 to 8.930) in the twice a day group. The lower limit value of 95% confidence interval on both sides exceeds 1 in both groups. […] In addition, the difference point estimate (95% confidence interval on both sides) from the placebo group is 22.8% (4.3% to 39.3%) in the once a day group, 30.5% (12.3% 46.0%) in the twice a day group. Significant differences are observed in the once a day group and twice a day group as compared with the placebo group. The results are illustrated in Table 1 and FIG. 1. In the table and figure, “budesonide once a day administration group” illustrates the result of once a day group, and “budesonide twice a day administration group” illustrates the result of twice a day group, respectively. Patients with MMDAI endoscopic score of 0 are evaluated as mucosal healing. […] In addition, the difference point estimate (95% confidence interval on both sides) from the placebo group is 18.1% (4.8% to 31.3%) in the once a day group, 40.9% (25.2% to 54.2%) in the twice a day group. Significant differences are observed in the once a day group and twice a day group as compared with the placebo group. […]"}, "[2]": {"tested_on": "patients with active ulcerative colitis", "assay": "Placebo-controlled randomized double-blind multicenter parallel group comparative study (Japic CTI-132294), rectal budesonide foam", "format": "in vivo, human", "remark": "listed apart in the source"}, "[3]": {"conditions": "2 mg once or twice a day, 6 weeks"}, "[4]": {"conditions": "budesonide 2 mg once a day, 6 weeks"}, "[5]": {"conditions": "budesonide 2 mg twice a day, 6 weeks"}, "[6]": {"conditions": "once a day group, 55 analysis target cases"}, "[7]": {"conditions": "twice a day group, 56 analysis target cases"}}, "data": [{"smiles": "CCCC1O[C@@H]2C[C@H]3[C@@H]4CCC5=CC(=O)C=C[C@]5(C)[C@H]4[C@@H](O)C[C@]3(C)[C@]2(C(=O)CO)O1", "note": "(mixture of isomers) [Budesonide, (+)-[(RS)-16α,17α-Butylidenedioxy-11β,21-dihydroxy-1,4-pregnadiene-3,20-dione]]", "values": [{"measurement": "adverse events due to administration of the test drug", "setting": "[1]; [3]", "value": "serum cortisol decrease and serum corticotropin decrease occurs"}, {"measurement": "serious adverse events or severe adverse events", "setting": "[1]; [3]", "value": "are not occurred"}, {"measurement": "incidence of adverse events, twice a day group compared with once a day group", "setting": "[1]; 2 mg per dose, 6 weeks", "value": "increased"}, {"measurement": "tolerability to patients of ulcerative colitis", "setting": "[1]; 2 mg rectal administration once a day or twice a day for 6 weeks", "value": "acceptable"}, {"measurement": "mucosal healing rate (proportion of subjects with MMDAI endoscopic score of 0)", "setting": "[1]; [4]", "value": 23.6, "unit": "%"}, {"measurement": "mucosal remission rate (proportion of subjects with MMDAI endoscopic score of 1 or less)", "setting": "[1]; [4]", "value": 69.1, "unit": "%"}, {"measurement": "remission rate (MMDAI: bloody stool score 0, endoscopic score 1 or less, stool frequency score 0 or decrease of 1 point or more from week 0)", "setting": "[1]; budesonide 2 mg rectal foam once a day, 6 weeks", "value": 50.9, "unit": "%"}, {"measurement": "remission rate (MMDAI: bloody stool score 0, endoscopic score 1 or less, stool frequency score 0 or decrease of 1 point or more from week 0)", "setting": "[1]; budesonide 2 mg rectal foam twice a day, 6 weeks", "value": 48.2, "unit": "%"}, {"measurement": "mucosal healing rate (proportion of subjects with MMDAI endoscopic score of 0)", "setting": "[1]; [5]", "value": 46.4, "unit": "%"}, {"measurement": "mucosal remission rate (proportion of subjects with MMDAI endoscopic score of 1 or less)", "setting": "[1]; [5]", "value": 76.8, "unit": "%"}, {"measurement": "mucosal healing rate, point estimate of proportion difference from placebo group", "setting": "[1]; once a day group, 6 weeks", "value": 18.1, "unit": "%"}, {"measurement": "mucosal remission rate, point estimate of proportion difference from placebo group", "setting": "[1]; once a day group, 6 weeks", "value": 22.8, "unit": "%"}, {"measurement": "point estimate of the odds ratio versus the placebo group, mucosal healing rate (logistic regression)", "setting": "[1]; once a day group, 6 weeks", "value": 5.143}, {"measurement": "point estimate of the odds ratio versus the placebo group, remission rate (logistic regression)", "setting": "[1]; once a day group, 6 weeks", "value": 3.994}, {"measurement": "incidence of adverse events related to glucocorticoids", "setting": "[1]; twice a day group compared with once a day group", "value": "increase in the incidence of adverse events related to glucocorticoids is not observed"}, {"measurement": "mucosal healing rate, point estimate of proportion difference from placebo group", "setting": "[1]; twice a day group, 6 weeks", "value": 40.9, "unit": "%"}, {"measurement": "mucosal remission rate, point estimate of proportion difference from placebo group", "setting": "[1]; twice a day group, 6 weeks", "value": 30.5, "unit": "%"}, {"measurement": "point estimate of the odds ratio versus the placebo group, mucosal healing rate (logistic regression)", "setting": "[1]; twice a day group, 6 weeks", "value": 15.553}, {"measurement": "point estimate of the odds ratio versus the placebo group, remission rate (logistic regression)", "setting": "[1]; twice a day group, 6 weeks", "value": 3.674}, {"measurement": "Case (subjects in mucosal remission, endoscopic score 1 or less)", "setting": "[2]; [6]", "value": 38}, {"measurement": "Case (subjects with mucosal healing, endoscopic score 0)", "setting": "[2]; [6]", "value": 13}, {"measurement": "Case (subjects in mucosal remission, endoscopic score 1 or less)", "setting": "[2]; [7]", "value": 43}, {"measurement": "Case (subjects with mucosal healing, endoscopic score 0)", "setting": "[2]; [7]", "value": 26}]}]}
